We go through one substance from article PMC12707294 (Analytical chemistry, 2025).

The target in the assay is hu3F8 Fab. The class given is binding.

For GD2 hexasaccharide [GD2os], the affinity, expressed as Kd, was 2300 ± 100 nM.
